Key:
Type in all cases: in vivo
[1] = system: pigweed (Amaranthus retroflexus); assay: Test C pre-/postemergence: pigweed
How it was run: (§1)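 Preemergence on seeds in loam/sand, postemergence on 2–18 cm (1–4-leaf) plants in peat-based medium; compounds in non-phytotoxic solvent with surfactant. After 13–15 days in greenhouse, visual rating versus controls, 0 (no effect) to 100 (complete control).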

[2] = system: velvetleaf (Abutilon theophrasti); assay: Test A pre-/postemergence: velvetleaf
How it was run: (§2)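 Injury was scored visually on a 0 (no effect) to 100 (complete control) scale versus untreated controls roughly ten days after treatment in the greenhouse. Compounds, formulated in surfactant-containing non-phytotoxic solvent, went on as soil-directed preemergence spray or postemergence to one- to two-leaf plants 2–10 cm tall.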

corn (Zea mays) = assay: Test A pre-/postemergence: corn; conditions: for Corn plant response rating: Postemergence; for Plant response rating, Corn: Preemergence
How it was run: as §2

[3] = system: sedge, umbrella (small-flower umbrella sedge Cyperus difformis); assay: Test B flooded paddy: sedge, umbrella; conditions: Flood; 250 g ai/ha; applied to paddy water at 2-leaf stage; visually evaluated after 13 to 15 days
How it was run: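 Plants were grown to the 2-leaf stage and pots flooded to 3 cm above soil. Compounds were applied directly into the paddy water, with depth kept for the test. After 13–15 days in greenhouse, response was rated visually against controls on a 0 (no effect) to 100 (complete control) scale.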

[4] = system: wheat (Triticum aestivum); assay: Test A pre-/postemergence: wheat
How it was run: as §2

[5] = system: nutsedge, yellow (yellow nutsedge, Cyperus esculentus); assay: Test C pre-/postemergence: nutsedge, yellow
How it was run: as §1

[6] = system: foxtail, giant (giant foxtail, Setaria faberii); assay: Test A pre-/postemergence: foxtail, giant; conditions: for Foxtail, Giant plant response rating: Postemergence; for Plant response rating, Foxtail, Giant: Preemergence
How it was run: as §2

[7] = system: winter wheat (Triticum aestivum); assay: Test C pre-/postemergence: winter wheat
How it was run: as §1

[8] = system: chickweed (common chickweed, Stellaria media); assay: Test C postemergence: chickweed
How it was run: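 Visual 0–100 injury score vs untreated controls (0 none, 100 complete control), taken 13–15 d after treatment. Postemergence spray on potted plants, 2–18 cm, 1–4 leaves; greenhouse.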

[9] = Postemergence, 31 g ai/ha, scale 0 to 100 (0 no effect, 100 complete control)
[10] = Postemergence, 62 g ai/ha, scale 0 to 100 (0 no effect, 100 complete control)
[11] = Postemergence, 125 g ai/ha, scale 0 to 100, 0 no effect, 100 complete control
[12] = Postemergence, 250 g ai/ha, scale 0 to 100
[13] = Postemergence, 125 g ai/ha, 0 to 100 scale, 0 is no effect, 100 is complete control
[14] = Postemergence, 500 g ai/ha, visual rating on 0 to 100 scale (0 no effect, 100 complete control), approximately ten days
[15] = Preemergence, 125 g ai/ha, 0 to 100 scale (0 no effect, 100 complete control)
[16] = Preemergence, 500 g ai/ha, 0 to 100 scale, 0 is no effect, 100 is complete control
[17] = 125 g ai/ha, 0 to 100 scale, 0 is no effect, 100 is complete control
[18] = 500 g ai/ha, visual rating on 0 to 100 scale (0 no effect, 100 complete control), approximately ten days
[19] = 125 g ai/ha, 0 to 100 scale (0 no effect, 100 complete control)
[20] = 500 g ai/ha, 0 to 100 scale, 0 is no effect, 100 is complete control
[21] = 31 g ai/ha, scale 0 to 100 (0 no effect, 100 complete control)
[22] = 62 g ai/ha, scale 0 to 100 (0 no effect, 100 complete control)
[23] = 125 g ai/ha, scale 0 to 100, 0 no effect, 100 complete control
[24] = Preemergence, 31 g ai/ha, scale of 0 to 100, 0 is no effect, 100 is complete control
[25] = Preemergence, 62 g ai/ha, scale of 0 to 100, 0 is no effect, 100 is complete control
[26] = Preemergence, 125 g ai/ha, scale 0 to 100, 0 no effect, 100 complete control
[27] = Preemergence, 250 g ai/ha, scale 0 to 100, 0 no effect, 100 complete control
[28] = Preemergence, 125 g ai/ha, 0 to 100 scale where 0 is no effect and 100 is complete control
[29] = Preemergence, 500 g ai/ha, 0 to 100 scale (0 no effect, 100 complete control)
[30] = 125 g ai/ha, 0 to 100 scale where 0 is no effect and 100 is complete control
[31] = 500 g ai/ha, 0 to 100 scale (0 no effect, 100 complete control)

FC(F)(F)c1ccc(-n2nc(Cl)c(Cc3ccnc(C(F)(F)F)c3)n2)cc1 [Compound 28]
Plant response rating, Pigweed [1, 9]: 55
Plant response rating, Pigweed [1, 10]: 55
Plant response rating, Pigweed [1, 11]: 55
Plant response rating, Pigweed [1, 12]: 98
Velvetleaf plant response rating [2, 13]: 80
Velvetleaf plant response rating [2, 14]: 100
Plant response rating, Velvetleaf [2, 15]: 20
Plant response rating, Velvetleaf [2, 16]: 80
Corn plant response rating (corn (Zea mays); [17]): 30
Corn plant response rating (corn (Zea mays); [18]): 50
Plant response rating, Corn (corn (Zea mays); [19]): 20
Plant response rating, Corn (corn (Zea mays); [20]): 20
Plant response rating, Sedge, Umbrella (0 to 100 scale, 0 is no effect, 100 is complete control) [3]: 95
Wheat plant response rating [4, 13]: 40
Wheat plant response rating [4, 14]: 50
Plant response rating, Wheat [4, 15]: 0
Plant response rating, Wheat [4, 16]: 20
Plant response rating, Nutsedge, Yellow [5, 9]: 5
Plant response rating, Nutsedge, Yellow [5, 10]: 5
Plant response rating, Nutsedge, Yellow [5, 11]: 15
Plant response rating, Nutsedge, Yellow [5, 12]: 25
Foxtail, Giant plant response rating [6, 17]: 90
Foxtail, Giant plant response rating [6, 18]: 90
Plant response rating, Foxtail, Giant [6, 19]: 100
Plant response rating, Foxtail, Giant [6, 20]: 100
Plant response rating, Wheat [7, 9]: 5
Plant response rating, Wheat [7, 10]: 10
Plant response rating, Wheat [7, 11]: 10
Plant response rating, Wheat [7, 12]: 20
Plant response rating, Chickweed [8, 21]: 30
Plant response rating, Chickweed [8, 22]: 55
Plant response rating, Chickweed [8, 23]: 95
Plant response rating, Chickweed ([8]; 250 g ai/ha, scale 0 to 100): 100

COc1nn(-c2ccc(C(F)(F)F)cc2)nc1Cc1ccnc(C(F)F)c1 [Compound 138]
Plant response rating, Pigweed [1, 9]: 98
Plant response rating, Pigweed [1, 10]: 98
Plant response rating, Pigweed [1, 11]: 98
Plant response rating, Pigweed [1, 12]: 100
Plant response rating, Pigweed [1, 24]: 98
Plant response rating, Pigweed [1, 25]: 100
Plant response rating, Pigweed [1, 26]: 100
Plant response rating, Pigweed [1, 27]: 100
Plant response rating, Velvetleaf [2, 13]: 100
Velvetleaf plant response rating [2, 14]: 100
Plant response rating, Velvetleaf [2, 28]: 70
Plant response rating, Velvetleaf [2, 29]: 100
Corn plant response rating (corn (Zea mays); [17]): 50
Corn plant response rating (corn (Zea mays); [18]): 70
Plant response rating, Corn (corn (Zea mays); [30]): 30
Plant response rating, Corn (corn (Zea mays); [31]): 60
Plant response rating, Sedge, Umbrella (0 to 100 scale, 0 is no effect, 100 is complete control) [3]: 90
Plant response rating, Wheat [4, 13]: 50
Wheat plant response rating [4, 14]: 60
Plant response rating, Wheat [4, 28]: 30
Plant response rating, Wheat [4, 29]: 60
Plant response rating, Nutsedge, Yellow [5, 9]: 10
Plant response rating, Nutsedge, Yellow [5, 10]: 10
Plant response rating, Nutsedge, Yellow [5, 11]: 15
Plant response rating, Nutsedge, Yellow [5, 12]: 20
Plant response rating, Nutsedge, Yellow [5, 24]: 5
Plant response rating, Nutsedge, Yellow [5, 26]: 5
Plant response rating, Nutsedge, Yellow [5, 27]: 5
Foxtail, Giant plant response rating [6, 17]: 90
Foxtail, Giant plant response rating [6, 18]: 90
Plant response rating, Foxtail, Giant [6, 30]: 100
Plant response rating, Foxtail, Giant [6, 31]: 100
Plant response rating, Wheat [7, 9]: 10
Plant response rating, Wheat [7, 10]: 10
Plant response rating, Wheat [7, 11]: 35
Plant response rating, Wheat [7, 12]: 35
Plant response rating, Wheat [7, 25]: 5
Plant response rating, Wheat [7, 26]: 10
Plant response rating, Wheat [7, 27]: 50
Plant response rating, Chickweed [8, 22]: 80
Plant response rating, Chickweed [8, 23]: 95
Plant response rating, Chickweed ([8]; 250 g ai/ha, scale 0 to 100): 98

COc1nn(-c2cccc(F)c2)nc1Cc1ccnc(C(F)(F)F)c1 [Compound 139]
Plant response rating, Pigweed [1, 9]: 95
Plant response rating, Pigweed [1, 10]: 98
Plant response rating, Pigweed [1, 11]: 98
Plant response rating, Pigweed [1, 12]: 98
Plant response rating, Pigweed [1, 24]: 98
Plant response rating, Pigweed [1, 25]: 98
Plant response rating, Pigweed [1, 26]: 100
Plant response rating, Pigweed [1, 27]: 100
Plant response rating, Velvetleaf [2, 13]: 90
Velvetleaf plant response rating [2, 14]: 100
Plant response rating, Velvetleaf [2, 28]: 30
Plant response rating, Velvetleaf [2, 29]: 90
Corn plant response rating (corn (Zea mays); [17]): 30
Corn plant response rating (corn (Zea mays); [18]): 50
Plant response rating, Corn (corn (Zea mays); [30]): 10
Plant response rating, Corn (corn (Zea mays); [31]): 30
Plant response rating, Sedge, Umbrella (0 to 100 scale, 0 is no effect, 100 is complete control) [3]: 80
Plant response rating, Wheat [4, 13]: 30
Wheat plant response rating [4, 14]: 40
Plant response rating, Wheat [4, 28]: 10
Plant response rating, Wheat [4, 29]: 50
Plant response rating, Nutsedge, Yellow [5, 9]: 10
Plant response rating, Nutsedge, Yellow [5, 10]: 10
Plant response rating, Nutsedge, Yellow [5, 11]: 10
Plant response rating, Nutsedge, Yellow [5, 12]: 25
Plant response rating, Nutsedge, Yellow [5, 24]: 0
Plant response rating, Nutsedge, Yellow [5, 25]: 0
Plant response rating, Nutsedge, Yellow [5, 26]: 0
Plant response rating, Nutsedge, Yellow [5, 27]: 5
Foxtail, Giant plant response rating [6, 17]: 90
Foxtail, Giant plant response rating [6, 18]: 100
Plant response rating, Foxtail, Giant [6, 30]: 100
Plant response rating, Foxtail, Giant [6, 31]: 100
Plant response rating, Wheat [7, 9]: 10
Plant response rating, Wheat [7, 10]: 10
Plant response rating, Wheat [7, 11]: 40
Plant response rating, Wheat [7, 12]: 40
Plant response rating, Wheat [7, 25]: 0
Plant response rating, Wheat [7, 26]: 10
Plant response rating, Wheat [7, 27]: 20
Plant response rating, Chickweed [8, 21]: 75
Plant response rating, Chickweed [8, 22]: 98
Plant response rating, Chickweed [8, 23]: 98
Plant response rating, Chickweed ([8]; 250 g ai/ha, scale 0 to 100): 100

Cc1nn(-c2ccnc(Cl)c2)nc1Cc1ccnc(C(F)(F)F)c1 [Compound 141]
Plant response rating, Pigweed [1, 9]: 95
Plant response rating, Pigweed [1, 10]: 95
Plant response rating, Pigweed [1, 11]: 98
Plant response rating, Pigweed [1, 12]: 98
Plant response rating, Velvetleaf [2, 13]: 70
Velvetleaf plant response rating [2, 14]: 90
Plant response rating, Velvetleaf [2, 28]: 20
Plant response rating, Velvetleaf [2, 29]: 60
Corn plant response rating (corn (Zea mays); [17]): 30
Corn plant response rating (corn (Zea mays); [18]): 50
Plant response rating, Corn (corn (Zea mays); [30]): 0
Plant response rating, Corn (corn (Zea mays); [31]): 30
Plant response rating, Sedge, Umbrella (0 to 100 scale, 0 is no effect, 100 is complete control) [3]: 85
Plant response rating, Wheat [4, 13]: 20
Wheat plant response rating [4, 14]: 50
Plant response rating, Wheat [4, 28]: 0
Plant response rating, Wheat [4, 29]: 20
Plant response rating, Nutsedge, Yellow [5, 9]: 0
Plant response rating, Nutsedge, Yellow [5, 10]: 10
Plant response rating, Nutsedge, Yellow [5, 11]: 15
Plant response rating, Nutsedge, Yellow [5, 12]: 15
Foxtail, Giant plant response rating [6, 17]: 90
Foxtail, Giant plant response rating [6, 18]: 90
Plant response rating, Foxtail, Giant [6, 30]: 100
Plant response rating, Foxtail, Giant [6, 31]: 100
Plant response rating, Wheat [7, 9]: 10
Plant response rating, Wheat [7, 10]: 15
Plant response rating, Wheat [7, 11]: 20
Plant response rating, Wheat [7, 12]: 20
Plant response rating, Chickweed [8, 21]: 80
Plant response rating, Chickweed [8, 22]: 90
Plant response rating, Chickweed [8, 23]: 98
Plant response rating, Chickweed ([8]; 250 g ai/ha, scale 0 to 100): 100

From patent US9302999B2, “Substituted triazoles as herbicides” (E. I. DU PONT DE NEMOURS AND COMPANY, priority 2012, dated 2016)
